Values quoted from earlier work in US9938200B2, “Methods for improving bud break” (priority 2010, dated 2018).

System: vines
Details: use over time

N#CN [hydrogen cyanamide]
lowering of the fruitability of vines: 20-30 % per year
